Laboratory results reported in US20240294519A1, “PYRROLO[2,3-b]PYRIDINE PGDH INHIBITORS AND METHODS OF MAKING AND USING” (EPIRIUM BIO INC., priority 2021, published 2024).

Columns and labels:
15-PGDH/HPGD = target: T1, 15-PGDH/HPGD (Homo sapiens, UniProt P15428); assay: hPGDH inhibitor screening biochemical assay; conditions: 10 nM enzyme, 15 μM PGE2, 0.25 mM NAD, fluorescence ex/em 340/485 nm
T1 construct: purchased R&D System 5660-DH
T1 sequence (P15428 1-266): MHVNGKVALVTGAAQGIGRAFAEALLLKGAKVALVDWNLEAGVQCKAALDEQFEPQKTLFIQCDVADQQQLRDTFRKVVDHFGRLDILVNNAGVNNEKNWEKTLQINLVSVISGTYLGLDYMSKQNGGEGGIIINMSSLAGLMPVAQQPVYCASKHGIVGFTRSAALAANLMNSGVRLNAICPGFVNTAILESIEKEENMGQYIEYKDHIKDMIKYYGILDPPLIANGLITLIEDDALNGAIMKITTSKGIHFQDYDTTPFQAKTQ
Method: A hydroxyprostaglandin dehydrogenase inhibition screening biochemical assay can be performed to assess the synthesized inhibitors provided herein. Provided herein is an exemplary biochemical assay for hPGDH inhibitor screening.
The in vitro biochemical assay can be performed in white, 384 plates in total 20 μl reaction volume consisting of 10 nM of 15-PGDH/HPGD (R&D System #5660-DH), 15 μM Prostaglandin E2 (Sigma, C8 t #P5640-10 MG) and 0.25 mM β-Nicotinamide adenine dinucleotide sodium salt (Sigma, C8 t #N0632-5G) made in reaction buffer (50 mM Tris-HCl, pH 7.5, 0.01% Tween 20) at 10-point dose response curve for test/tool compounds. Briefly, 5 μl (4×) of compounds solution and 5 μl (final concentration, 10 nM) of enzyme solution is added to white 384 well plates and incubated for 10 mins at 37° C. 5 μl (4×) of […] and 5 μl (4×) of β-Nicotinamide adenine dinucleotide sodium salt is added to the wells and incubated for 10 mins at room temperature. Fluorescence is recorded at ex/em=340 nm/485 nm. The percentage (%) inhibition of enzyme activity was determined relative to positive control (1% DMSO) and IC50 was calculated using GraphPad prism software (four parameter-variable slope equation).

15-PGDH = target: T2, 15-PGDH (Homo sapiens, UniProt P15428); assay: A549 cell based assay: PGE2 in supernatant after IL-1β (HTRF); conditions: A549 cells, fold induction of PGE2, IL-1β plus test article versus IL-1β only
T2 construct: 15-PGDH is highly expressed in resting human lung adenocarcinoma cells (A549); endogenous in cells; host or cells: A549
T2 sequence (P15428 1-266): T1 sequence (P15428 1-266)
Method: Cell Based Assay: 15-PGDH is highly expressed in resting human lung adenocarcinoma cells (A549) (Tong et al., 2006), and this cell line was used to assess 15-PGDH inhibition by MF-300Na in vitro.
In this assay, A549 cells are treated with interleukin (IL) 1β, which induces the expression of cycloxygenase-2 and the synthesis of PGE2 (Tong et al., 2006). In the studies evaluating test articles, thirty thousand A549 cells were seeded in 100 μL F12K completed media and incubated for 24 hours at 37° C. with 5% CO2 before being serum-starved for 24 hours. On the day of the experiment, buffer was changed to complete medium, and cells were incubated for 30 minutes with compounds prior to the addition of IL-1β (final concentration of 0.1-0.25 ng/mL) overnight at 37° C. with 5% CO2. Each concentration was run in triplicate. […] The PGE2 in the supernatant was detected and quantified using a Cisbio HTRF technology (Homogeneous Time-Resolved Fluorescence) kit (62P2APEG-62P2APEH) according to the manufacturer's recommendations, quantifying the fold induction of PGE2 of cells treated with IL-1β plus test article, versus treatment with IL-1β only.

SMILES	IC50 (15-PGDH/HPGD) [µM]	PGE2 - HTRF over IL-β induction at 0.001 μM (15-PGDH)	PGE2 - HTRF over IL-β induction at 0.01 μM (15-PGDH)	PGE2 - HTRF over IL-β induction at 0.1 μM (15-PGDH)	PGE2 - HTRF over IL-β induction at 1 μM (15-PGDH)
CCOC(=O)Nc1cc(-n2ccc3cc(C(=O)N4CCC(F)(F)CC4)cnc32)cnc1C [Compound B-96]	< 0.1	0.77	1.54	3.22	5.19
CC(C)OC(=O)Nc1cncc(-n2ccc3cc(C(=O)N4CCC(F)(F)CC4)cnc32)c1 [Compound B-88]	< 0.1	2.14	3.77	3.25	4.67
O=C(c1cnc2c(ccn2-c2ccc(-n3cnnc3)cc2)c1)N1CCC(F)(F)CC1 [Compound B-107]		1.73	1.31	2.12	3.51
O=C(O)c1ccc(-n2ccc3cc(C(=O)N4CCC(F)(F)CC4)cnc32)s1 [Compound B-118]		1.48	1.55	1	1.02
O=C(c1cnc2c(ccn2-c2cccc(-c3nc[nH]n3)c2)c1)N1CCC(F)(F)CC1 [Compound B-36, (1-(3-(4H-1,2,4-triazol-3-yl)phenyl)-1H-pyrrolo[2,3-b]pyridin-5-yl)(4,4-difluoropiperidin-1-yl)methanone]	< 0.1	2.93	4.16	3.31	4.33
O=C(Nc1cncc(-n2ccc3cc(C(=O)N4CCC(F)(F)CC4)cnc32)c1)C1CCOCC1 [Compound B-232]	< 0.1	0.34	1.02	2.68	4.46
O=C(c1cnc2c(ccn2-c2ccc3nc(N4CCOCC4)nn3c2)c1)N1CCC(F)(F)CC1 [Compound B-97, (4,4-difluoropiperidin-1-yl)(1-(2-morpholino [1,2,4]triazolo [1,5-a]pyridin-6-yl)-1H-pyrrolo [2,3-b]pyridin-5-yl)methanone]		1.08	2.42	4.98	5.37
O=C(O)c1ccc(-n2ccc3cc(C(=O)N4CCC(F)(F)CC4)cnc32)cc1F [Compound B-27, 4-(5-(4,4-difluoropiperidine-1-carbonyl)-1H-pyrrolo[2,3-b]pyridin-1-yl)-2-fluorobenzoic acid]	< 0.1				
O=C(c1cnc2c(ccn2-c2ccc(-c3nc[nH]n3)s2)c1)N1CCC(F)(F)CC1 [Compound B-119]		1.01	1.2	2.87	3.06
Cc1cc(-n2ccc3cc(C(=O)N4CCC(F)(F)CC4)cnc32)ccc1-c1nnc[nH]1 [Compound B-255]	< 0.1				
O=C(c1cnc2c(ccn2-c2ccc(N3C(=O)CCC3=O)cc2)c1)N1CCC(F)(F)CC1 [Compound B-106]		0.90	0.81	0.86	2.8
COc1cc(-c2nnc[nH]2)cc(-n2ccc3cc(C(=O)N4CCC(F)(F)CC4)cnc32)c1 [Compound B-263]	< 0.1				
Nc1nc(-c2cncc(-n3ccc4cc(C(=O)N5CCC(F)(F)CC5)cnc43)c2)no1 [Compound B-11, (1-(5-(5-amino-1,2,4-oxadiazol-3-yl)pyridin-3-yl)-1H-pyrrolo [2,3-b]pyridin-5-yl)(4,4-difluoropiperidin-1-yl)methanone]	< 0.1				
C[C@@]1(O)CCCN(C(=O)c2cnc3c(ccn3-c3cccc(-c4nnc[nH]4)c3)c2)C1 [Compound B-244]	< 0.1				

Further lines, results first:

IC50 (15-PGDH/HPGD) [µM]	PGE2 - HTRF over IL-β induction at 0.001 μM (15-PGDH)	PGE2 - HTRF over IL-β induction at 0.01 μM (15-PGDH)	PGE2 - HTRF over IL-β induction at 0.1 μM (15-PGDH)	PGE2 - HTRF over IL-β induction at 1 μM (15-PGDH)	SMILES
< 0.1	2.36	2.83	2.86	2.4	O=C(c1cnc2c(ccn2-c2ccc(N3CCOC3=O)nc2)c1)N1CCC[C@H](C(F)(F)F)C1 [Compound B-80]
< 0.1	1.57	3.31	3	5.13	CNc1nc2ccc(-n3ccc4cc(C(=O)N5CCC(F)(F)CC5)cnc43)cn2n1 [Compound B-89]
< 0.1	2.23	5.78	7.25	11.1	O=C(c1cnc2c(ccn2-c2ccc(N3CCOC3=O)nc2)c1)N1CCCC(C(F)(F)F)C1 (stereo not drawn) [Compound B-114]
	1.34	1.28	4.15	6.26	Cc1nc2ccc(-n3ccc4cc(C(=O)N5CCC(F)(F)CC5)cnc43)cn2n1 [Compound B-120]
< 0.1	2.7	5.52	5.36	4.19	COC(=O)Nc1cncc(-n2ccc3cc(C(=O)N4CCCC(F)(F)C4)cnc32)c1 [Compound B-82]
	0.79	1.78	4.49	5.26	C[C@H]1CCCN(C(=O)c2cnc3c(ccn3-c3cnn(CC(F)(F)F)c3)c2)C1 [Compound B-100]
0.1 to 1	0.95	1.08	3.09	5.02	CN(C)c1nc2ccc(-n3ccc4cc(C(=O)N5CCC(F)(F)CC5)cnc43)cn2n1 [Compound B-102]
	4.36	3.07	4.92	5.24	O=C(c1cnc2c(ccn2-c2ccc(N3CCOC3=O)nc2)c1)N1CCCC(F)(F)C1 [Compound B-115]
	1.57	2.98	3.46	3.26	C[C@H]1CCCN(C(=O)c2cnc3c(ccn3-c3ccc4nc(N(C)C)nn4c3)c2)C1 [Compound B-108]
	1.15	1.34	5.1	6.3	Cc1cn2cc(-n3ccc4cc(C(=O)N5CCC(F)(F)CC5)cnc43)ccc2n1 [Compound B-103]
< 0.1					C[C@H]1CCCN(C(=O)c2cnc3c(ccn3-c3ccc(-c4nc[nH]n4)cn3)c2)C1 [Compound B-35, (S)-(1-(5-(4H-1,2,4-triazol-3-yl)pyridin-2-yl)-1H-pyrrolo[2,3-b]pyridin-5-yl)(3-methylpiperidin-1-yl)methanone]
< 0.1					CO[C@H]1CCCN(C(=O)c2cnc3c(ccn3-c3cc(F)cc(-c4nnc[nH]4)c3)c2)C1 [Compound B-242]
< 0.1					O=C(O)c1ccc(-n2ccc3cc(C(=O)N4CC[C@@H](F)C4)cnc32)cc1 [Compound B-6]
